Data reported in publication PMC4603705, “A bioinspired peptide scaffold with high antibiotic activity and low in vivo toxicity” (Scientific Reports, 2015).
≈ marks a conversion by molar mass, not a printed value. Where “and” joins values, the source holds several entries; their conditions need not be identical. Equal values may be shown once. Bridge positions count the residues as written; N and C are the ends. Square brackets hold non-standard residues; d marks the D form. Peptide text beside a SMILES is read from it. * marks the point of attachment. Nonanoyl = CCCCCCCCC(=O)*; Dab = NCC[C@H](N)C(=O)O

Columns and labels:
P. aeruginosa ATTC 9027 = format: cell-based, Pseudomonas aeruginosa; conditions: for MIC P. aeruginosa: ATTC 9027; for MIC P. a.: Supplementary Table S1, P. aeruginosa
Experimental: (§1) MICs were measured after 18–20 h of incubation in sterile 96-well plates (Corning Costar 3598 microtiter plates) in Mueller Hinton Broth (MHB) culture medium, (Difco, USA), according to well known in vitro protocols. Bacterial strains in Table 1 were: P. aeruginosa ATTC 9027, E. coli ATTC 8739, S. aureus ATTC 6538, and E. faecalis ATTC 29212. MICs shown in table 4 were performed by Mary Conrad at Cubist Pharmaceuticals (Lexington, MA) in non-binding surface plates.

E. coli ATTC 8739 = format: cell-based, Escherichia coli; conditions: for MIC E. coli: ATTC 8739; for MIC E. c.: Supplementary Table S1, E. coli
Experimental: as §1

[1] = tested on: human dermic fibroblasts (hDF); assay: In vitro cytotoxicity (WST-1 cell viability), hDF; format: cell-based; conditions: for IC50 hDF Exp1: Supplementary Table S2, experiment 1; for IC50 hDF Exp2: Supplementary Table S2, experiment 2; for IC50 hDF: cytotoxicity, WST-1
Experimental: (§2) Cell viability assays were performed using the tetrazolium dye WST1 (similar to MTT) on human dermal fibroblasts (3T3 hDF), MDCK (renal model, Madin-Darby canine kidney cells) and PC12 (NGF treated; neuronal model) cell lines and followed standard protocols. Briefly, cells were seeded into 96-well plates, after incubation for 24 h, the medium was replaced with fresh cell culture medium containing the products (range 0-1.2 mg/mL). Negative and positive controls consisted of plates in the absence of the test compound and plates with sodium dodecyl sulfate (0.02% w/v), respectively. Cell viability was assayed with the tetrazolium salt (4-[3-(4- iodophenyl)-2-(4-nitrophenyl)-2H-5-tetrazolio]-1,3-benzene disulfonate) (WST-1). The relative WST-1 absorbance was recorded at 450 nm.
(§3) The products at concentrations ranging from 0 to 1.2 mg/mL were tested (triplicate) and in two independent experiments. The statistical analysis of the data was performed by using non-linear regression (curve-fit) and the model used agreed with the four parameter logistic model (4PL), also called the Hill-Slope model (sigmoid model), with the following equation: […]
(§4) where y is the percent activity and x is the corresponding concentration. The quantities determined where the point estimate IC50 (Half maximal (50%) inhibitory concentration (IC) of a substance, see Table II), the corresponding 95% confidence interval and R^2 (measures the goodness of fit) are shown in the Supplementary Table S2.

[2] = tested on: Madine-Darby canine kidney cells (MDCK, renal model); assay: In vitro cytotoxicity (WST-1 cell viability), MDCK; format: cell-based; conditions: for IC50 MDCK Exp1: Supplementary Table S2, experiment 1; for IC50 MDCK Exp2: Supplementary Table S2, experiment 2; for IC50 MDCK: cytotoxicity, WST-1
Experimental: as §2, §3, §4

[3] = tested on: PC12 (treated with NGF, neuronal model); assay: In vitro cytotoxicity (WST-1 cell viability), PC12; format: cell-based; conditions: WST-1, NGF treated
Experimental: as §2, §3, §4

S. aureus ATTC 6538 = assay: microbe, parasite or virus in culture; format: cell-based, Staphylococcus aureus; conditions: for MIC S. aureus: ATTC 6538; for MIC S. a.: Supplementary Table S1, S. aureus
Experimental: as §1

S. aureus = assay: microbe, parasite or virus in culture; format: cell-based, Staphylococcus aureus
Experimental: as §1

E. faecalis ATTC 29212 = assay: microbe, parasite or virus in culture; format: cell-based, Enterococcus faecalis; conditions: ATTC 29212
Experimental: Lipopeptide 39 was chosen for this, as it is known that long fatty acids tend to favor activity against Gram-positive bacteria in polymyxin analogs. […] In summary, new broad-spectrum antimicrobial lipopeptides were achieved.
as §1

E. coli (ATCC 25922) [4] = assay: Flow cytometry (PI membrane permeability, BOX membrane potential), E. coli; format: cell-based, Escherichia coli; conditions: 5 μg/mL
Experimental: The mechanism of action at the membrane level of our best candidate was studied using flow cytometry. To assess membrane permeability, a propidium iodide (PI) probe was used[43][44]. The fluorescence conferred by this probe is generally associated with cells that have lost their membrane integrity. The effect on membrane potential was evaluated with bis-(1,3-dibutylbarbituric acid) trimethine oxonol (BOX). Membrane depolarization leads to the incorporation of this anionic dye into the cell where it binds to lipid-rich intracellular compounds, resulting in an increase in fluorescence.
(§5) An overnight culture (12 to 16 h) of S. aureus (ATCC 29213) or E. coli (ATCC 25922) in Tryptic Soy Broth (TSB) was grown at 37 °C and 400 μL were added in 50 mL of tryptone water (∼10^7 bacteria/mL). The bacterial suspension was split into aliquots of 4-5 mL and treated with the peptides (at the MIC) for different incubation times at room temperature. Cells were collected by centrifugation (10000 rpm, 20 min) and resuspended in 1 mL of filtered Ringer’s solution.
A stock solution of propidium iodide (PI, 1 mg/mL, Molecular Probes) and bis-(1,3-dibutylbarbituric acid) trimethine oxonol (BOX, 250 μM, Sigma Aldrich) was prepared in distilled water. Portions (10 μL and 2 μL, respectively) were added to aliquots of cells (100 μL of each sample in 1 mL of Ringer’s solution) to give a final concentration of 10 μg/mL of PI and 0.5 μM for BOX.
Flow cytometric measurements were performed on a Gallios multi-colour flow cytometer instrument (Beckman Coulter, Inc, Fullerton, CA) set up with the 3-lasers 10 colors standard configuration. Excitation was done using a blue (488 nm) laser. Forward scatter (FS), side scatter (SS), green fluorescence (525/40 nm) from BOX and red fluorescence (620/30 nm) emitted by PI were collected using logarithmic scales. FS was used as the discriminating parameter. The single-cell bacterial population was selected on a forward-side scatter plot. Fluorescence was presented in a dot plot of BOX vs. PI. Three regions were defined on this graph according to the controls: depolarized, permeabilized and non-affected cells. Control cells (non-stained and single stained populations) were used to define these regions. 25,000 cells defined according to their scatter parameters were counted in each sample.

E. coli (ATCC 25922) [5] = assay: Reduction of viability by plate count, E. coli; format: cell-based, Escherichia coli; conditions: 5 μg/mL
Experimental: as §5

E. coli = tested on: E. coli
Experimental: (§6) Strains of E. coli and P. aeruginosa with resistance to quinolones and carbapenems as well as multi-drug-resistant bacteria were tested.
as §1

P. aeruginosa = tested on: P. aeruginosa
Experimental: as §6, §1

[6] = resistant to nalidixic acid, cotrimoxazole and ampicillin

CCCCCCCCC(=O)N[C@@H](CCCNC(=N)N)C(=O)N[C@H](C(=O)N[C@@H](CCN)C(=O)N[C@H]1CSSC[C@@H](C(N)=O)NC(=O)[C@H](CCN)NC(=O)[C@H](CCCNC(=N)N)NC(=O)[C@H](CC(C)C)NC(=O)[C@@H](Cc2ccccc2)NC(=O)[C@H](CCN)NC1=O)[C@@H](C)O [Analog 5, nonanoyl-Arg-Thr-Dab-Cys-Dab-Phe-Leu-Arg-Dab-Cys] (Nonanoyl-RT[Dab]C[Dab][dF]LR[Dab]C-NH2; disulfide 4-10)
MIC P. aeruginosa (P. aeruginosa ATTC 9027): 16 µg/mL (≈ 12 µM)
MIC E. coli (E. coli ATTC 8739): 8 µg/mL (≈ 5.99 µM)
IC50 hDF Exp1 [1]: 555 µg/mL (≈ 416 µM)
IC50 hDF Exp2 [1]: 513 µg/mL (≈ 384 µM)
IC50 hDF [1]: 534 µg/mL (≈ 400 µM)
IC50 MDCK Exp1 [2]: 541 µg/mL (≈ 405 µM)
IC50 MDCK Exp2 [2]: 554 µg/mL (≈ 415 µM)
IC50 MDCK [2]: 548 µg/mL (≈ 410 µM)
IC50 PC12 [3]: 629 µg/mL (≈ 471 µM)

CCCCCCCCC(=O)N[C@@H](CCCNC(=N)N)C(=O)N[C@H](C(=O)N[C@@H](CCCNC(=N)N)C(=O)N[C@H]1CSSC[C@@H](C(N)=O)NC(=O)[C@H](CCN)NC(=O)[C@H](CCCNC(=N)N)NC(=O)[C@H](CC(C)C)NC(=O)[C@@H](Cc2ccccc2)NC(=O)[C@H](CCN)NC1=O)[C@@H](C)O [Analog 8, nonanoyl-Arg-Thr-Arg-Cys-Dab-Phe-Leu-Arg-Dab-Cys] (Nonanoyl-RTRC[Dab][dF]LR[Dab]C-NH2; disulfide 4-10)
MIC P. aeruginosa (P. aeruginosa ATTC 9027): 8 µg/mL (≈ 5.75 µM)
MIC E. coli (E. coli ATTC 8739): 4 µg/mL (≈ 2.87 µM)
IC50 hDF Exp1 [1]: 421 µg/mL (≈ 302 µM)
IC50 hDF Exp2 [1]: 502 µg/mL (≈ 361 µM)
IC50 hDF [1]: 461 µg/mL (≈ 331 µM)
IC50 MDCK Exp1 [2]: 417 µg/mL (≈ 299 µM)
IC50 MDCK Exp2 [2]: 528 µg/mL (≈ 379 µM)
IC50 MDCK [2]: 472 µg/mL (≈ 339 µM)
IC50 PC12 [3]: 595 µg/mL (≈ 428 µM)

CCCCCCCCC(=O)N[C@@H](CCCNC(=N)N)C(=O)N[C@H](C(=O)N[C@@H](CCCNC(=N)N)C(=O)N[C@H]1CSSC[C@@H](C(N)=O)NC(=O)[C@H](CCCNC(=N)N)NC(=O)[C@H](CCCNC(=N)N)NC(=O)[C@H](CC(C)C)NC(=O)[C@@H](Cc2ccccc2)NC(=O)[C@H](CCCNC(=N)N)NC1=O)[C@@H](C)O [Analog 12] (Nonanoyl-RTRCR[dF]LRRC-NH2; disulfide 4-10)
MIC S. aureus (S. aureus ATTC 6538): 8 µg/mL (≈ 5.32 µM)
MIC P. aeruginosa (P. aeruginosa ATTC 9027): 16 to 32 µg/mL
MIC E. coli (E. coli ATTC 8739): 8 to 16 µg/mL
IC50 hDF Exp1 [1]: 147 µg/mL (≈ 97.7 µM)
IC50 hDF Exp2 [1]: 181 µg/mL (≈ 120 µM)
IC50 hDF [1]: 164 µg/mL (≈ 109 µM)
IC50 MDCK Exp1 [2]: 233 µg/mL (≈ 155 µM)
IC50 MDCK Exp2 [2]: 147 µg/mL (≈ 97.7 µM)
IC50 MDCK [2]: 190 µg/mL (≈ 126 µM)
IC50 PC12 [3]: 225 µg/mL (≈ 150 µM)

CCCCCCCCCC(=O)N[C@@H](Cc1c[nH]c2ccccc12)C(=O)N[C@H](CC(N)=O)C(=O)N[C@@H](CC(=O)O)C(=O)N[C@@H]1C(=O)NCC(=O)N[C@@H](CCCN)C(=O)N[C@@H](CC(=O)O)C(=O)N[C@H](C)C(=O)N[C@@H](CC(=O)O)C(=O)NCC(=O)N[C@H](CO)C(=O)N[C@@H]([C@H](C)CC(=O)O)C(=O)N[C@@H](CC(=O)c2ccccc2N)C(=O)O[C@@H]1C [Daptomycin]
MIC S. aureus (S. aureus ATTC 6538): 1 µg/mL (≈ 0.617 µM)
MIC S. aureus DR, MR SAU.1616 (S. aureus): 16 µg/mL (≈ 9.87 µM)
MIC S. aureus DR, MS SAU.278 (S. aureus): 8 µg/mL (≈ 4.94 µM)
MIC S. aureus MR ATTC 43300 (S. aureus): 0.5 µg/mL (≈ 0.309 µM)
MIC S. aureus MR SAU.1118 (S. aureus): 0.5 µg/mL (≈ 0.309 µM)
MIC S. aureus MS ATTC 29213 (S. aureus): 0.5 µg/mL (≈ 0.309 µM)
MIC E. faecalis Wild type ATTC 29212 (E. faecalis ATTC 29212): 2 to 4 µg/mL

C9-Dab-Thr-Dab-Cys-Dab-Phe-Met-Dab-Dab-Cys [Analog 19]
MIC S. a. (S. aureus ATTC 6538): 32 µg/mL
MIC P. a. (P. aeruginosa ATTC 9027): 16 µg/mL
MIC E. c. (E. coli ATTC 8739): 4 µg/mL

C9-Dab[(C=NH)NH2]-Thr-Dab-Cys-Dab-Phe-Leu-Dab[(C=NH)NH2]-Dab-Cys [Analog 15]
MIC S. a. (S. aureus ATTC 6538): > 32 µg/mL
MIC P. a. (P. aeruginosa ATTC 9027): 8 µg/mL
MIC E. c. (E. coli ATTC 8739): 4 µg/mL

C9-Dap[(C=NH)NH2]-Thr-Dab-Cys-Dab-Phe-Leu-Dap[(C=NH)NH2]-Dab-Cys [Analog 14]
MIC S. a. (S. aureus ATTC 6538): 16 µg/mL
MIC P. a. (P. aeruginosa ATTC 9027): 16 µg/mL
MIC E. c. (E. coli ATTC 8739): 2 µg/mL

C9-Lys-Thr-Dab-Cys-Dab-Phe-Leu-Lys-Dab-Cys [Analog 33]
MIC S. a. (S. aureus ATTC 6538): 128 µg/mL
MIC P. a. (P. aeruginosa ATTC 9027): 32 µg/mL
MIC E. c. (E. coli ATTC 8739): 16 µg/mL

C9-Orn-Thr-Dab-Cys-Dab-Phe-Leu-Orn-Dab-Cys [Analog 35]
MIC S. a. (S. aureus ATTC 6538): 64 µg/mL
MIC P. a. (P. aeruginosa ATTC 9027): 16 µg/mL
MIC E. c. (E. coli ATTC 8739): 16 µg/mL

PxB nonapeptide [PxBN]
% of stained cells BOX (E. coli (ATCC 25922) [4]; 30 min): 5%
% of stained cells PI (E. coli (ATCC 25922) [4]; 30 min): 10%
% of stained cells BOX (E. coli (ATCC 25922) [4]; 60 min): 3%-6% and 6%
% of stained cells PI (E. coli (ATCC 25922) [4]; 60 min): 3%-6% and 3%
% viability reduction (E. coli (ATCC 25922) [5]; 30 min): 0%
% viability reduction (E. coli (ATCC 25922) [5]; 60 min): 5%

colistin [PxE, reference compound]
MIC E. coli NDM-1 (E. coli; highly-resistant, New Delhi metallo-beta-lactamase gene): 0.5 µg/mL
MIC E. coli VAL 5 (E. coli; resistant to nalidixic acid): 0.25 µg/mL
MIC E. coli MAC 21a (E. coli; [6]): 0.5 µg/mL
MIC E. coli VAL 10 (E. coli; [6]): 0.5 µg/mL
MIC P. aeruginosa 38a (P. aeruginosa; resistant to ceftazidime, ciprofloxacin, imipenem, piperacillin-tazobactam): 1 µg/mL
MIC P. aeruginosa 40b (P. aeruginosa; resistant to imipenem): 1 µg/mL
